Measured values taken from patent publication US12139474B2, “LPA receptor antagonists and uses thereof” (Gilead Sciences, Inc., priority 2020, dated 2024).

Each molecule was assayed against T1, human LPAR1 (Homo sapiens, UniProt Q92633) (assay: LPAR1 intracellular calcium mobilization assay (antagonist mode)). Details: CHO-K1 EDG2 cells expressing human LPAR1; 60 min pre-incubation with compound, then LPA 18:2 at EC80 (100 nM); FLIPR calcium signal.
T1 construct: host or cells: CHO-K1
Assay type: cell-based
Procedure: In vitro LPAR1 activity was measured in an intracellular calcium mobilization assay.
CHO-K1 EDG2 cells (DiscoverX cat #93-0644C2) expressing human LPAR1 (NM_001401.3) were seeded in a total volume of 25 μL of Dulbecco's Modification of Eagle's Medium (DMEM) with 10% Fetal Bovine Serum, 1× PenStrepGlutamine, 300 ug/ml Hygromycin, and 800 ug/ml G418 into 384-well tissue culture plate (Grenier #781091) at 15,000 cells/well and incubated at 37° C. overnight. Prior to testing, 25 μL Calcium Loading Dye Component A (FLIPR Calcium 6 Assay Kit Molecular Device #R8190) and 2.5 mM Probenecid (Invitrogen #P36400, prepared fresh) in Hank's Balanced Salt Solution (Corning #21-023-CV), 20 mM HEPES (Corning #25-060-CI), 0.1% Bovine Serum Albumin (Sigma-Aldrich #A7906-500G) was add to the cells for 60 minutes at 37° C.
Agonist dose curves of LPA 18:2 (Avanti Polar Lipids cat #857138, 0.5 nM to 10 μM) were recorded to determine the LPA 18:2 EC80 for subsequent antagonist assays. For agonist dose curves, cells were removed from the incubator 2 hours after dye loading and transferred to the FLIPR Tetra instrument (Molecular Devices, San Jose, CA). Calcium mobilization was monitored for 5 min and 10 μL 6× LPA in HBSS/20 mM Hepes/0.1% bovine serum albumin (BSA) was added to the cells 5 seconds into the assay.
To determine the LPAR1 antagonist activity of test compounds, cells were pre-incubated with test compound at a dose range of 0.5 nM to 10 μM, followed by LPA at EC80 concentration (100 nM). After dye loading, cells were removed from the incubator and 0.3 μL of 200× antagonist was added. Cells were incubated for 60 minutes at 37° C. Antagonist activity was measured on a FLIPR Tetra. Calcium mobilization was monitored for 3.5 minutes and 10 μL 6× EC80 LPA in HBSS, 20 mM HEPES, and 0.1% BSA was added to the cells 5 seconds into the assay. Signal amplitude (Maximum minus minimum) values were plotted against log10 of antagonist concentration using Dose Response Tool (Gilead Sciences Inc.) to determine EC50.
To assess the antagonistic potential of exemplified compounds EC50 values were determined for Compounds 1 to 32 in the LPAR1 calcium mobilization assay. The compound numbers correspond to the compound numbers in Examples 1 to 33.

T1 sequence (Q92633 whole entry): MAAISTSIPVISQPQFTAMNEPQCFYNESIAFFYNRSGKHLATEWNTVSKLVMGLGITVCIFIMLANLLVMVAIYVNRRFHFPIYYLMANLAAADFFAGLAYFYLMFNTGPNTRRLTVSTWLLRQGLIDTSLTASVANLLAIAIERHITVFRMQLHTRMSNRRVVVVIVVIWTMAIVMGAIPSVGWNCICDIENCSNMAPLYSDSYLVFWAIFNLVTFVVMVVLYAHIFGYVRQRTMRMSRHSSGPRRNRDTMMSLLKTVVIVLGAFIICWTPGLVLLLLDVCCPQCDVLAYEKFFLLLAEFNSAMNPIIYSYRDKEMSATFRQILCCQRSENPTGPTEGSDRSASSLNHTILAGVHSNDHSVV

EC50 [nM] | SMILES
390 | C[C@@H](OC(=O)Nc1c(-c2ccc3c(c2)CCC(=O)N3)nnn1C)c1cccnc1Cl [Compound 17, (R)-1-(2-chloropyridin-3-yl)ethyl (1-methyl-4-(2-oxo-1,2,3,4-tetrahydroquinolin-6-yl)-1H-1,2,3-triazol-5-yl)-carbamate]
765 | C[C@@H](OC(=O)Nc1c(-c2cnc3c(c2)OCC(=O)N3)nnn1C)c1cccnc1Cl [Compound 8, (R)-1-(2-chloropyridin-3-yl)ethyl (1-methyl-4-(3-oxo-3,4-dihydro-2H-pyrido[3,2-b][1,4]oxazin-7-yl)-1H-1,2,3-triazol-5-yl)carbamate]
123 | C[C@@H](OC(=O)Nc1c(-c2ccc3c(n2)OCC(=O)N3)nnn1C)c1cccnc1Cl [Compound 24, (R)-1-(2-chloropyridin-3-yl)ethyl (1-methyl-4-(2-oxo-2,3-dihydro-1H-pyrido[2,3-b][1,4]oxazin-6-yl)-1H-1,2,3-triazol-5-yl)carbamate]

The next lines start with the molecule.

SMILES | EC50 [nM]
C[C@@H](OC(=O)Nc1c(-c2ccc3c(c2)CCC(=O)N3)nnn1C)c1cc(F)cnc1Cl [Compound 20, (R)-1-(2-chloro-5-fluoropyridin-3-yl)ethyl (1-methyl-4-(2-oxo-1,2,3,4-tetrahydroquinolin-6-yl)-1H-1,2,3-triazol-5-yl)carbamate] | 118
C[C@@H](OC(=O)Nc1c(-c2ccc3[nH]c(=O)ccc3c2)nnn1C)c1ccccc1Cl [Compound 15, (R)-1-(2-chlorophenyl)ethyl(1-methyl-4-(2-oxo-1,2-dihydroquinolin-6-yl)-1H-1,2,3-triazol-5-yl)carbamate] | 565
